The values that follow come from ChEMBL document CHEMBL5143628, “Enteroviral replication inhibition by N-Alkyl triazolopyrimidinone derivatives through a non-capsid binding mode” (Bioorg Med Chem Lett, 2022).

Calls of active or inactive are those of the source. The calls are words filed in the database; no cut-off is given here. Some results are limits rather than exact numbers.

Series [1] has as its system rhinovirus B14. Description: Antiviral activity against Human rhinovirus B14 infected in human H1-HeLa cells assessed as reduction in virus induced cytopathic effect incubated for 3 days by MTT assay. The series is classed as functional, organism-based.
Series [2] in a line: Selectivity index, ratio of CC50 for cytotoxicity against human H1-HeLa cells to EC50 for antiviral activity against Human rhinovirus A71 infected in human H1-HeLa cells. The series is classed as toxicity, cell-based. Conditions: for selectivity ratio: H1-HeLa cells, read-out: Ratio CC50/EC50.
The nature of series [3]: (§1) Cytotoxicity against human H1-HeLa cells assessed as reduction in cell viability by MTT assay. The format is toxicity, cell-based. Conditions: H1-HeLa cells.
A short description of series [4]: Antiviral activity against Human rhinovirus A71 infected in human H1-HeLa cells assessed as reduction in virus induced cytopathic effect incubated for 3 days by MTT assay. The series is classed as functional, cell-based.
Series [5] can be described thus: Selectivity index, ratio of CC50 for cytotoxicity against human H1-HeLa cells to EC50 for antiviral activity against Human rhinovirus B14 infected in human H1-HeLa cells. The format is toxicity, cell-based. Conditions: for selectivity ratio: H1-HeLa cells, read-out: Ratio CC50/EC50.
The subject of series [6] is rhinovirus A21. The experiment in a line: Antiviral activity against Human rhinovirus A21 infected in human H1-HeLa cells assessed as reduction in virus induced cytopathic effect incubated for 3 days by MTT assay. The format is functional, organism-based.
The nature of series [7]: Selectivity index, ratio of CC50 for cytotoxicity against human H1-HeLa cells to EC50 for antiviral activity against Human rhinovirus A21 infected in human H1-HeLa cells. The series is classed as toxicity, cell-based. Conditions: for selectivity ratio: H1-HeLa cells, read-out: Ratio CC50/EC50.
For series [8], the system named is Poliovirus 3. Description: Antiviral activity against Human poliovirus 3 infected in human H1-HeLa cells assessed as reduction in virus induced cytopathic effect incubated for 2 days by MTT assay. The series is classed as functional, organism-based. To be noted: Enterovirus C, 48 h.
For series [9], the system named is Coxsackievirus B1. The experiment in a line: Antiviral activity against Human coxsackievirus B1 infected in human H1-HeLa cells assessed as reduction in virus induced cytopathic effect incubated for 2 days by MTT assay. The series is classed as functional, organism-based. To be noted: Enterovirus B, 48 h.
Series [10] deals with rhinovirus B14. The experiment in a line: Antiviral activity against Human rhinovirus B14 infected in human H1-HeLa cells assessed as reduction in viral titre at 0.1 uM pretreated for 1 hr followed by viral infection and measured after 6 hrs by time-of-addition assay. The series is classed as functional, organism-based.
Series [11] relates to rhinovirus B14. The experiment in a line: Antiviral activity against Human rhinovirus B14 infected in human H1-HeLa cells assessed as reduction in viral replication by measuring viral titre measured 3 days post infection by crystal violet staining based plaque reduction assay. The series is classed as functional, organism-based. To be noted: dose 1.1-30 µM, time 3.0 day, DDE = dose-dependent effect.

Series [12] deals with rhinovirus B14. The experiment in a line: Antiviral activity against Human rhinovirus B14 infected in human H1-HeLa cells assessed as reduction in viral titre at early stage at 10 uM pretreated for 1 hr followed by viral infection and measured after 9 hrs by time-of-addition assay. The format is functional, organism-based.
Series [13] has as its system H1-HeLa. The series is described as §1. To be noted: h1-hela. The series is classed as toxicity, cell-based.
Series [14] has as its target CYP2C19 (Homo sapiens, UniProt P33261). The experiment in a line: Inhibition of human CYP2C19 at 10 uM incubated for 20 mins in presence of NADPH regenerating system by luminescence assay relative to control. The series is classed as ADME.
Series [15] deals with rhinovirus A16. The experiment in a line: Antiviral activity against Human rhinovirus 16 infected in human H1-HeLa cells assessed as reduction in virus induced cytopathic effect incubated for 3 days by MTT assay. The series is classed as functional, organism-based. To be noted: Rhinovirus A, 72 h.
The test system of series [16] is rhinovirus B14. The experiment in a line: Antiviral activity against Human rhinovirus B14 infected in human H1-HeLa cells assessed as reduction in viral replication by measuring viral production measured 3 days post infection by crystal violet staining based plaque reduction assay. The format is functional, organism-based. Conditions: dose 0.4-30 µM, time 3.0 day, DDE = dose-dependent effect.

Series [17] deals with rhinovirus A1B. Description: Antiviral activity against Rhinovirus A1B infected in human H1-HeLa cells assessed as reduction in virus induced cytopathic effect incubated for 3 days by MTT assay. The format is functional, organism-based. To be noted: Rhinovirus A, 72 h.
Series [18] concerns rhinovirus B14. The experiment in a line: Antiviral activity against Human rhinovirus B14 infected in human H1-HeLa cells assessed as reduction in viral titre at 1 uM pretreated for 1 hr followed by viral infection and measured immediately by time-of-addition assay. The series is classed as functional, organism-based.
Series [19] deals with rhinovirus A2. The experiment in a line: Antiviral activity against Human rhinovirus 2 infected in human H1-HeLa cells assessed as reduction in virus induced cytopathic effect incubated for 3 days by MTT assay. The series is classed as functional, organism-based. Conditions: Rhinovirus A, 72 h.
The subject of series [20] is Rhinovirus A. Description: Antiviral activity against Rhinovirus A33 infected in human H1-HeLa cells assessed as reduction in virus induced cytopathic effect incubated for 3 days by MTT assay. To be noted: Rhinovirus A, 33, H1-HeLa, 72 h. The series is classed as functional, cell-based.
Series [21] has as its system Rhinovirus B. The experiment in a line: Antiviral activity against Rhinovirus B91 infected in human H1-HeLa cells assessed as reduction in virus induced cytopathic effect incubated for 3 days by MTT assay. The format is functional, organism-based. To be noted: Rhinovirus B, 91, H1-HeLa, 72 h.
Series [22] relates to rhinovirus B86. Description: Antiviral activity against Human rhinovirus 86 infected in human H1-HeLa cells assessed as reduction in virus induced cytopathic effect incubated for 3 days by MTT assay. The format is functional, organism-based. Conditions: Rhinovirus B, 72 h.
Series [23] deals with CYP2C9 (Homo sapiens, UniProt P11712). Description: Inhibition of human CYP2C9 at 10 uM incubated for 20 mins in presence of NADPH regenerating system by luminescence assay relative to control. The series is classed as ADME.
Chain of CYP2C9 (P11712 whole entry): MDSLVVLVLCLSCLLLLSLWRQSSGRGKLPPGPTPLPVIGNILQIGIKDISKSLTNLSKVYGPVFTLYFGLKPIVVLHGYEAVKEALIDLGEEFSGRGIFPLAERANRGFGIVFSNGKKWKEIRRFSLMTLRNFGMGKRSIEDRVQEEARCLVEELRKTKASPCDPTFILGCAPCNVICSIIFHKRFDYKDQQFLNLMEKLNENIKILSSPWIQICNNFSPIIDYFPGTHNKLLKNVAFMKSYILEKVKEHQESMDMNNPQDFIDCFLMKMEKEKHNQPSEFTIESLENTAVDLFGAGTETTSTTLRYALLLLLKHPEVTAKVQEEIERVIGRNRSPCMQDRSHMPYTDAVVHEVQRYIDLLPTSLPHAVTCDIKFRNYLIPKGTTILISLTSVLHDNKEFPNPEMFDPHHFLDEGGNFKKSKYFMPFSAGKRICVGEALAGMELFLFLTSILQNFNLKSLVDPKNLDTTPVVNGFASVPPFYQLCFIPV

Chain of CYP2C19 (P33261 whole entry): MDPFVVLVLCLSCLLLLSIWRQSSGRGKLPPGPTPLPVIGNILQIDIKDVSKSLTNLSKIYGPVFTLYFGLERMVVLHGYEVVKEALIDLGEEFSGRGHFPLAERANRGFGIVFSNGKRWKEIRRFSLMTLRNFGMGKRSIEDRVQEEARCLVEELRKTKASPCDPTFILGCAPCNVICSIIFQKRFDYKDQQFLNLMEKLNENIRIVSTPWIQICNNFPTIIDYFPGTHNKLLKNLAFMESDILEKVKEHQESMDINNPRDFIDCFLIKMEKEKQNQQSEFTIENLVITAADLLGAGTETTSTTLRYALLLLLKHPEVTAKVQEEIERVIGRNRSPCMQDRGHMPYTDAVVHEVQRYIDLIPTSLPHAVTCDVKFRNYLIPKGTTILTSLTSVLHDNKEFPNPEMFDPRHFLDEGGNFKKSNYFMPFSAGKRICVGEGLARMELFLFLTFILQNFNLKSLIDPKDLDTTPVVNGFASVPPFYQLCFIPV

Take `CC(C)(C)C1CCc2c(sc3c2c(=O)n(-c2ccccc2)c2nncn32)C1` (stereo unspecified): the EC50 in series [1] (Rhinovirus B, H1-HeLa, 72 h) was determined as 5 µM; in series [4] (Rhinovirus A, H1-HeLa, 72 h) it was 2.3 µM; in series [6] (Rhinovirus A, H1-HeLa, 72 h) it was 5.1 µM. Besides, the results for the selectivity ratio in series [2], in series [5] and in [7] were 8.1, 3.7 and 3.6, respectively. Besides, the CC50 in series [3] is 18.7 µM.

For `CCCCn1c(=O)c2c3c(sc2n2cnnc12)CC(C(C)(C)C)CC3` (stereo unspecified), the EC50 in series [1] (Rhinovirus B, H1-HeLa, 72 h) was 2.2 µM; in series [8] it was 2.55 µM; in series [4] (Rhinovirus A, H1-HeLa, 72 h), 2 µM; in series [6] (Rhinovirus A, H1-HeLa, 72 h), over 100 µM; in series [9] it was over 22.9 µM. The results for the selectivity ratio in series [2] and in series [5] were over 50 and over 45.4, respectively. Also, the CC50 in series [3] is over 100 µM.

Turning to `Cn1c(=O)c2c3c(sc2n2cnnc12)CC(C(C)(C)C)CC3` (stereo unspecified), the EC50 in series [1] (Rhinovirus B, H1-HeLa, 72 h) is over 100 µM; in series [8], over 100 µM; in series [4] (Rhinovirus A, H1-HeLa, 72 h), 23 µM; in [6] (Rhinovirus A, H1-HeLa, 72 h) it was over 100 µM; in [9], over 100 µM. Also, the selectivity ratio in series [2] was over 4.3. For the same compound, in series [3], the CC50 is over 100 µM.

On to `CCCCCCn1c(=O)c2c3c(sc2n2cnnc12)CC(C(C)(C)C)CC3` (stereo unspecified), for which the EC50 in [1] (Rhinovirus B, H1-HeLa, 72 h) was over 100 µM; in series [4] (Rhinovirus A, H1-HeLa, 72 h) it was over 100 µM; in series [6] (Rhinovirus A, H1-HeLa, 72 h) it was over 100 µM. In addition, the CC50 in series [3] was over 100 µM.

Take `CCn1c(=O)c2c3c(sc2n2cnnc12)CC(C(C)(C)C)CC3` (stereo unspecified): the EC50 is 14.1 µM in series [1] (Rhinovirus B, H1-HeLa, 72 h); 3.8 µM in series [8]; 3.7 µM in series [4] (Rhinovirus A, H1-HeLa, 72 h); 14.7 µM in series [6] (Rhinovirus A, H1-HeLa, 72 h); over 100 µM in series [9]. The selectivity ratio is over 27 in [2], over 7 in series [5] and over 6.8 in series [7]. For the same compound, in series [3], the CC50 was over 100 µM.

As for `CC(C)CCn1c(=O)c2c3c(sc2n2cnnc12)CC(C(C)(C)C)CC3` (stereo unspecified), the EC50 was over 100 µM in [1] (Rhinovirus B, H1-HeLa, 72 h); over 100 µM in [4] (Rhinovirus A, H1-HeLa, 72 h); over 100 µM in [6] (Rhinovirus A, H1-HeLa, 72 h). Moreover, the CC50 in [3] was over 100 µM.

Regarding `CC(C)(C)C1CCc2c(sc3c2c(=O)n(C2CC2)c2nncn32)C1` (stereo unspecified), the EC50 came out at 15 µM in series [1] (Rhinovirus B, H1-HeLa, 72 h); 4.3 µM in [4] (Rhinovirus A, H1-HeLa, 72 h); 7.7 µM in [6] (Rhinovirus A, H1-HeLa, 72 h). Also, the selectivity ratio amounted to 8.2 in series [2], 2.3 in series [5] and 4.6 in series [7]. The CC50 in series [3] was 35.5 µM.

As to `CC(C)Cn1c(=O)c2c3c(sc2n2cnnc12)CC(C(C)(C)C)CC3` (stereo unspecified), the EC50 came out at 4.2 µM in series [1] (Rhinovirus B, H1-HeLa, 72 h); 2.2 µM in [4] (Rhinovirus A, H1-HeLa, 72 h); 5.1 µM in series [6] (Rhinovirus A, H1-HeLa, 72 h). Also, the selectivity ratio in series [2] was over 45.4; in series [5], over 23.8; in series [7], over 19.6. Moreover, in series [3], the CC50 is over 100 µM.

`CC(C)(C)C1CCc2c(sc3c2c(=O)n(C2CCCC2)c2nncn32)C1` (stereo unspecified): the half-maximal effective concentration (EC50) in [1] (Rhinovirus B, H1-HeLa, 72 h) is over 100 µM; in series [4] (Rhinovirus A, H1-HeLa, 72 h), 12.1 µM; in series [6] (Rhinovirus A, H1-HeLa, 72 h), over 100 µM. For the same compound, in series [2], the selectivity ratio was over 8.2. Further, the CC50 in [3] was over 100 µM.

Consider `CCOC(=O)/C=C/[C@H](CC1CCNC1=O)NC(=O)[C@@H](CC(=O)[C@@H](NC(=O)c1cc(C)on1)C(C)C)Cc1ccc(F)cc1` (stereo partly specified), for which the result in series [10] was Active.

In the case of `CCCn1c(=O)c2c3c(sc2n2cnnc12)CC(C(C)(C)C)CC3` (stereo in doubt), the Activity result in series [11] was “Dde”. Moreover, the result in [12] was Active.

Regarding `CCCn1c(=O)c2c3c(sc2n2cnnc12)CC(C(C)(C)C)CC3` (stereo in doubt; 2c-1), the results for the EC50 in series [1] (h1-hela), in series [4] (h1-hela) and in series [6] (h1-hela) were 3.7 µM, 1.7 µM and 3.5 µM, respectively. Besides, the “Ratio CC50/EC50” value in [2] is given as over 58.8; in series [5], over 27; in [7], over 28.5. Besides, in [13], the CC50 was over 100 µM.

For the compound `CCCn1c(=O)c2c3c(sc2n2cnnc12)CC(C(C)(C)C)CC3` (stereo in doubt; 2c-2), the results for the EC50 in series [1] (h1-hela), in [4] (h1-hela) and in series [6] (h1-hela) were 7.8 µM, 1.9 µM and 7.7 µM, respectively. In addition, the “Ratio CC50/EC50” value is over 52.6 in series [2], over 12.8 in series [5] and over 12.9 in series [7].

For `CN(C)CCC=C1c2ccccc2CCc2ccccc21` [AMITRIPTYLINE], in [14], the inhibition at 20 min, 10 µM is 90.2%.

As for `Cc1cc(CCCOc2c(C)cc(-c3noc(C(F)(F)F)n3)cc2C)on1` [PLECONARIL], the EC50 stood at 0.2 µM in [1] (Rhinovirus B, H1-HeLa, 72 h); 0.51 µM in [15]; 0.017 µM in series [4] (Rhinovirus A, H1-HeLa, 72 h); 0.24 µM in series [17]; 0.17 µM in [6] (Rhinovirus A, H1-HeLa, 72 h); 0.08 µM in series [19]. Further, the EC50 is 0.45 µM in series [20], 1.4 µM in [21] and 0.29 µM in [22]. For the same compound, the selectivity ratio was determined as 1700 in series [2], 145 in series [5] and 161 in series [7]. For the same compound, in [3], the CC50 is 20.8 µM. For the same compound, in [16], the Activity result is “Dde”. In addition, the result in series [18] was Active.

For the compound `Nc1ccc(S(=O)(=O)Nc2ccnn2-c2ccccc2)cc1` [SULFAPHENAZOLE], in [23], the inhibition at 20 min, 10 µM worked out at 85.8%.
